Laboratory results reported in ChEMBL document CHEMBL3046202, “Synthesis, spectral studies, antimicrobial and insect antifeedant potent keto oxiranes” (2011).
Activity calls are given as the source filed them. The calls are words filed in the database; no cut-off is given here.

Legend:
Klebsiella = assay: Antibacterial activity against Klebsiella assessed as diameter of growth zone inhibition at 250 ug/ml after 24-45 hrs by disc diffusion technique; type: functional; settings: read-out: DIZ
Penicillium = assay: Antifungal activity against Penicillium assessed as growth inhibition at 50 ug/ml after 72 hrs by dilution method; type: functional, organism-based
Proteus vulgaris = assay: Antibacterial activity against Proteus vulgaris assessed as diameter of growth zone inhibition at 250 ug/ml after 24-45 hrs by disc diffusion technique; type: functional; settings: read-out: DIZ
Staphylococcus aureus = assay: Antibacterial activity against Staphylococcus aureus assessed as diameter of growth zone inhibition at 250 ug/ml after 24-45 hrs by disc diffusion technique; type: functional; settings: read-out: DIZ
Enterococcus faecalis [1] = assay: Antibacterial activity against Enterococcus faecalis assessed as diameter of growth zone inhibition at 250 ug/ml after 24-45 hrs by disc diffusion technique; type: functional; settings: read-out: DIZ
Escherichia coli = assay: Antibacterial activity against Escherichia coli assessed as diameter of growth zone inhibition at 250 ug/ml after 24-45 hrs by disc diffusion technique; type: functional; settings: read-out: DIZ
Candida albicans = assay: Antifungal activity against Candida albicans assessed as diameter of growth zone inhibition at 250 ug/ml after 72 hrs by disc diffusion technique; type: functional; settings: read-out: DIZ
Pseudomonas = assay: Antibacterial activity against Pseudomonas assessed as diameter of growth zone inhibition at 250 ug/ml after 24-45 hrs by disc diffusion technique; type: functional; settings: read-out: DIZ
Enterococcus faecalis [2] = assay: Antibacterial activity against Enterococcus faecalis assessed as growth inhibition at 250 ug/ml after 24-45 hrs by disc diffusion technique; type: functional, organism-based
Achaea janata [3] = assay: Antifeedant activity against fourth-instar larval stage of Achaea janata L. in castor leaves assessed as decrease in leaf disc consumption at 200 ppm treated for 5 mins before larval infestation by leaf-disc bioassay method; type: functional, organism-based
Aspergillus niger = assay: Antifungal activity against Aspergillus niger assessed as growth inhibition at 50 ug/ml after 72 hrs by dilution method; type: functional, organism-based
Achaea janata [4] = assay: Antifeedant activity against fourth-instar larval stage of Achaea janata L. in castor leaves assessed as decrease in leaf disc consumption at 50 to 200 ppm treated for 5 mins before larval infestation by leaf-disc bioassay method; type: functional, organism-based

| Compound | zone of inhibition at 250 µg/mL (Klebsiella) | growth inhibition (GI) (Penicillium) | zone of inhibition at 250 µg/mL (Proteus vulgaris) | zone of inhibition at 250 µg/mL (Staphylococcus aureus) | zone of inhibition at 250 µg/mL (Enterococcus faecalis [1]) | zone of inhibition at 250 µg/mL (Escherichia coli) | zone of inhibition at 250 µg/mL (Candida albicans) | zone of inhibition at 250 µg/mL (Pseudomonas) | growth inhibition (GI) (Enterococcus faecalis [2]) | Activity (Achaea janata [3]) | growth inhibition (GI) (Aspergillus niger) | Activity (Achaea janata [4]) |
| --- | --- | --- | --- | --- | --- | --- | --- | --- | --- | --- | --- | --- |
| COc1ccc([C@H]2O[C@@H]2C(=O)c2ccc(-c3ccccc3)cc2)cc1 | 13 mm | Active | 13 mm | 13 mm | 20 mm | 13 mm | 20 mm | 13 mm | – | – | – | – |
| O=C(c1ccc(-c2ccccc2)cc1)[C@H]1O[C@@H]1c1cccc(Cl)c1 | 13 mm | – | 13 mm | 13 mm | – | 13 mm | – | 13 mm | inactive | Active | – | – |
| O=C(c1ccc(-c2ccccc2)cc1)[C@H]1O[C@@H]1c1ccc(O)cc1 | 13 mm | – | 13 mm | 13 mm | – | 13 mm | 20 mm | 13 mm | inactive | – | – | – |
| Cc1ccc([C@H]2O[C@@H]2C(=O)c2ccc(-c3ccccc3)cc2)cc1 | 8 mm | – | 8 mm | 8 mm | 8 mm | – | – | 13 mm | – | – | inactive | – |
| Nc1cccc([C@H]2O[C@@H]2C(=O)c2ccc(-c3ccccc3)cc2)c1 | 20 mm | – | 13 mm | 20 mm | 20 mm | 20 mm | – | 13 mm | – | – | – | – |
| Nc1ccc([C@H]2O[C@@H]2C(=O)c2ccc(-c3ccccc3)cc2)cc1 | 20 mm | – | 13 mm | 20 mm | 20 mm | 20 mm | – | 13 mm | – | – | – | – |
| O=C(c1ccc(-c2ccccc2)cc1)[C@H]1O[C@@H]1c1ccccc1 | 8 mm | inactive | 8 mm | 8 mm | – | 8 mm | – | 8 mm | inactive | – | inactive | – |
| O=C(c1ccc(-c2ccccc2)cc1)[C@H]1O[C@@H]1c1cccc(Br)c1 | 13 mm | Active | 13 mm | 13 mm | – | 13 mm | 20 mm | 13 mm | inactive | Active | Active | – |
| O=C(c1ccc(-c2ccccc2)cc1)[C@H]1O[C@@H]1c1ccc(Cl)cc1 | 13 mm | inactive | 13 mm | 13 mm | – | 13 mm | 8 mm | 13 mm | inactive | – | inactive | Active |
| O=C(c1ccc(-c2ccccc2)cc1)[C@H]1O[C@@H]1c1ccc([N+](=O)[O-])cc1 | 13 mm | inactive | 13 mm | 13 mm | – | 13 mm | – | 13 mm | inactive | – | inactive | – |
| O=C(c1ccc(-c2ccccc2)cc1)[C@H]1O[C@@H]1c1cccc([N+](=O)[O-])c1 | 13 mm | – | 13 mm | 13 mm | – | 13 mm | – | 13 mm | inactive | – | – | – |
| CN(C)c1ccc([C@H]2O[C@@H]2C(=O)c2ccc(-c3ccccc3)cc2)cc1 | 13 mm | Active | 13 mm | 20 mm | – | 20 mm | 8 mm | 20 mm | inactive | – | Active | – |
| O=C(c1ccc(-c2ccccc2)cc1)[C@H]1O[C@@H]1c1ccccc1[N+](=O)[O-] | 13 mm | inactive | 13 mm | 13 mm | – | 13 mm | – | 13 mm | inactive | – | inactive | – |
